“And” between values parts separate entries of the source, which are not always exact repeats. Equal values may be shown once.
What was measured:
[1] = tested on: ZEAMX; test: Postemergence herbicidal evaluation; format: in vivo
[2] = tested on: GALAP; test: Postemergence herbicidal evaluation; format: in vivo
[3] = tested on: ORYSAT; test: Postemergence herbicidal evaluation; format: in vivo, Oryza sativa
[4] = tested on: AMBEL; test: Postemergence herbicidal evaluation; format: in vivo
[5] = tested on: Soybean, Glycine max; test: Preemergence herbicidal evaluation, GLXMA; format: in vivo, (L.) Merr.; settings: 0.2500 kg/ha
Excerpt: Results of herbicide evaluation are expressed on a rating scale (0-9). The scale is based upon a visual observation of plant stand, vigor, malformation, size, chlorosis and overall plant appearance as compared with a control.
The preemergence herbicidal activity of the test compounds of the present invention is exemplified by the following tests in which the seeds of a variety of monocotyledonous and dicotyledonous plants are separately mixed with potting soil and planted on top of approximately one inch of soil in separate pint cups. After planting, the cups are sprayed with the selected aqueous acetone solution containing test compound in sufficient quantity to provide the equivalent of about 0.0156 to 0.500 kg per hectare of test compound per cup. The treated cups are then placed on greenhouse benches, watered and cared for in accordance with conventional greenhouse procedures. From four to five weeks after treatment, the tests are terminated and each cup is examined and rated according to the rating system provided in Example 185.
The compounds evaluated are reported by compound number given in Example 185.

[6] = tested on: ABUTH; test: Postemergence herbicidal evaluation; format: in vivo
[7] = tested on: ECHCG; test: Preemergence herbicidal evaluation; format: in vivo; set-up: scale not given here
[8] = tested on: IPOSS; test: Preemergence herbicidal evaluation; format: in vivo; set-up: scale not given here
[9] = tested on: CHEAL; test: Preemergence herbicidal evaluation; format: in vivo; set-up: scale not given here
[10] = tested on: AMBEL; test: Preemergence herbicidal evaluation; format: in vivo; set-up: scale not given here
[11] = tested on: TRZAWR; test: Preemergence herbicidal evaluation; format: in vivo; set-up: scale not given here
[12] = tested on: ABUTH; test: Preemergence herbicidal evaluation; format: in vivo; set-up: scale not given here
[13] = tested on: SETVI; test: Preemergence herbicidal evaluation; format: in vivo; set-up: scale not given here
[14] = tested on: GALAP; test: Preemergence herbicidal evaluation; format: in vivo; set-up: scale not given here
[15] = tested on: ZEAMX; test: Preemergence herbicidal evaluation; format: in vivo; set-up: scale not given here
[16] = tested on: CASOB; test: Preemergence herbicidal evaluation; format: in vivo; set-up: scale not given here
[17] = tested on: Morningglory, Ivyleaf, Ipomoea hederacea; test: Postemergence herbicidal evaluation, IPOHE; format: in vivo, (L.) Jacq.; settings: 0.0630 kg/ha
Procedure, shortened: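 Visual 0–9 rating vs untreated control (stand, vigor, malformation, size, chlorosis, overall appearance), scored 4–5 wk post-spray. Two-week-old seedlings; compound in 50/50 acetone/water + 0.5% TWEEN 20, ~0.0157–0.500 kg/ha, 40 psi nozzle.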

Cn1c(C(F)(F)F)cc(=O)n(-c2ccc3snc(-c4ccccc4)c3c2)c1=O [Compound 4, 1-Methyl-3-(3-phenyl-1,2-benzisothiazol-5-yl)-6-(trifluoromethyl)-2,4(1H,3H)-pyrimidinedione]
7.0: herbicidal effect rating ([4]; 0.0313-0.0320 kg/ha) | herbicide rating (0-9) [5] | herbicidal effect rating ([8]; 0.1250 kg/ha) | herbicidal effect rating ([10]; 0.0313-0.0320 kg/ha) | herbicidal effect rating ([10]; 0.0620-0.0630 kg/ha) | herbicidal effect rating ([11]; 0.1250 kg/ha) | herbicidal effect rating ([11]; 0.2500 kg/ha) | herbicidal effect rating ([11]; 0.5000 kg/ha) | herbicidal effect rating ([15]; 0.0620-0.0630 kg/ha) | herbicidal effect rating ([15]; 0.1250 kg/ha) | herbicidal effect rating ([15]; 0.2500 kg/ha) | herbicidal effect rating ([15]; 0.5000 kg/ha) | herbicidal effect rating ([16]; 0.0313-0.0320 kg/ha) | herbicidal effect rating ([16]; 0.0620-0.0630 kg/ha)
3.0: herbicidal effect rating ([1]; 0.0625-0.0640 kg/ha) | herbicidal effect rating ([1]; 0.1250 kg/ha) | herbicidal effect rating ([1]; 0.2500 kg/ha) | herbicidal effect rating ([1]; 0.5000 kg/ha) | herbicidal effect rating ([3]; 0.1250 kg/ha) | herbicidal effect rating ([3]; 0.2500 kg/ha) | herbicidal effect rating ([15]; 0.0313-0.0320 kg/ha)
6.0: herbicidal effect rating ([14]; 0.1250 kg/ha) | herbicidal effect rating ([16]; 0.1250 kg/ha)
4.0: herbicidal effect rating ([2]; 0.0157-0.0160 kg/ha) | herbicidal effect rating ([3]; 0.5000 kg/ha) | herbicidal effect rating ([8]; 0.0620-0.0630 kg/ha)
2.0: herbicidal effect rating ([1]; 0.0157-0.0160 kg/ha) | herbicidal effect rating ([1]; 0.0313-0.0320 kg/ha) | herbicidal effect rating ([3]; 0.0157-0.0160 kg/ha) | herbicidal effect rating ([3]; 0.0313-0.0320 kg/ha) | herbicidal effect rating ([3]; 0.0625-0.0640 kg/ha) | herbicidal effect rating ([8]; 0.0313-0.0320 kg/ha) | herbicidal effect rating ([11]; 0.0313-0.0320 kg/ha)
5.0: herbicidal effect rating ([11]; 0.0620-0.0630 kg/ha)
9.0: herbicidal effect rating ([2]; 0.0313-0.0320 kg/ha) | herbicidal effect rating ([2]; 0.0625-0.0640 kg/ha) | herbicidal effect rating ([2]; 0.1250 kg/ha) | herbicidal effect rating ([2]; 0.2500 kg/ha) | herbicidal effect rating ([2]; 0.5000 kg/ha) | herbicidal effect rating ([4]; 0.0157-0.0160 kg/ha) | herbicidal effect rating ([4]; 0.0625-0.0640 kg/ha) | herbicidal effect rating ([4]; 0.1250 kg/ha) | herbicidal effect rating ([4]; 0.2500 kg/ha) | herbicidal effect rating ([4]; 0.5000 kg/ha) | herbicidal effect rating ([6]; 0.0157-0.0160 kg/ha) | herbicidal effect rating ([6]; 0.0313-0.0320 kg/ha) | herbicidal effect rating ([6]; 0.0625-0.0640 kg/ha) | herbicidal effect rating ([6]; 0.1250 kg/ha) | herbicidal effect rating ([6]; 0.2500 kg/ha) | herbicidal effect rating ([6]; 0.5000 kg/ha) | herbicidal effect rating ([7]; 0.0313-0.0320 kg/ha) | herbicidal effect rating ([7]; 0.0620-0.0630 kg/ha) | herbicidal effect rating ([7]; 0.1250 kg/ha) | herbicidal effect rating ([7]; 0.2500 kg/ha) | herbicidal effect rating ([7]; 0.5000 kg/ha) | herbicidal effect rating ([8]; 0.2500 kg/ha) | herbicidal effect rating ([8]; 0.5000 kg/ha) | herbicidal effect rating ([9]; 0.0313-0.0320 kg/ha) | herbicidal effect rating ([9]; 0.0620-0.0630 kg/ha) | herbicidal effect rating ([9]; 0.1250 kg/ha) | herbicidal effect rating ([9]; 0.2500 kg/ha) | herbicidal effect rating ([9]; 0.5000 kg/ha) | herbicidal effect rating ([10]; 0.1250 kg/ha) | herbicidal effect rating ([10]; 0.2500 kg/ha) | herbicidal effect rating ([10]; 0.5000 kg/ha) | herbicidal effect rating ([12]; 0.0313-0.0320 kg/ha) | herbicidal effect rating ([12]; 0.0620-0.0630 kg/ha) | herbicidal effect rating ([12]; 0.1250 kg/ha) | herbicidal effect rating ([12]; 0.2500 kg/ha) | herbicidal effect rating ([12]; 0.5000 kg/ha) | herbicidal effect rating ([13]; 0.0313-0.0320 kg/ha) | herbicidal effect rating ([13]; 0.0620-0.0630 kg/ha) | herbicidal effect rating ([13]; 0.1250 kg/ha) | herbicidal effect rating ([13]; 0.2500 kg/ha) | herbicidal effect rating ([13]; 0.5000 kg/ha) | herbicidal effect rating ([14]; 0.0313-0.0320 kg/ha) | herbicidal effect rating ([14]; 0.0620-0.0630 kg/ha) | herbicidal effect rating ([14]; 0.2500 kg/ha) | herbicidal effect rating ([14]; 0.5000 kg/ha) | herbicidal effect rating ([16]; 0.2500 kg/ha) | herbicidal effect rating ([16]; 0.5000 kg/ha)

CCc1ccc(-c2nsc3ccc(-n4c(=O)cc(C(F)(F)F)n(C)c4=O)cc23)cc1 [Compound 5, 3-[3-(p-Ethylphenyl)-1,2-benzisothiazol-5-yl]-1-methyl-6-(trifluoromethyl)-2,4 (1H,3H)-pyrimidinedione]
4.0: herbicide rating (0-9) [5]

Cc1nsc2ccc(-n3c(=O)cc(C(F)(F)F)n(C)c3=O)cc12 [Compound 6, 1-Methyl-3-(3-methyl-1,2-benzisothiazol-5-yl)-6-(trifluoromethyl)-2,4(1H,3H)-pyrimidinedione]
7.0: herbicidal effect rating ([8]; 0.0620-0.0630 kg/ha) | herbicidal effect rating ([10]; 0.1250 kg/ha)
9.0 and 6.5: herbicidal effect rating ([4]; 0.0625-0.0640 kg/ha)
6.0: herbicidal effect rating ([7]; 0.1250 kg/ha)
9.0 and 8.0: herbicidal effect rating ([9]; 0.0313-0.0320 kg/ha)
5.0: herbicidal effect rating ([3]; 0.2500 kg/ha) | herbicidal effect rating ([3]; 0.5000 kg/ha) | herbicide rating (0-9) [17]
5.3 and 8.5 and 9.0: herbicidal effect rating ([14]; 0.0313-0.0320 kg/ha)
5.6 and 6.5 and 6.3: herbicidal effect rating ([11]; 0.0313-0.0320 kg/ha)
7.0 and 5.5: herbicidal effect rating ([16]; 0.0620-0.0630 kg/ha)
1.5 and 1.0: herbicidal effect rating ([3]; 0.0313-0.0320 kg/ha)
7.0 and 8.3: herbicidal effect rating ([11]; 0.0620-0.0630 kg/ha)
7.4 and 9.0 and 4.5: herbicidal effect rating ([10]; 0.0313-0.0320 kg/ha)
3.8 and 4.3 and 3.5: herbicidal effect rating ([1]; 0.0313-0.0320 kg/ha)
7.5 and 7.0: herbicidal effect rating ([8]; 0.0313-0.0320 kg/ha)
9.0 and 4.5: herbicidal effect rating ([12]; 0.0313-0.0320 kg/ha)
9.0: herbicidal effect rating ([2]; 0.1250 kg/ha) | herbicidal effect rating ([2]; 0.2500 kg/ha) | herbicidal effect rating ([2]; 0.5000 kg/ha) | herbicidal effect rating ([4]; 0.1250 kg/ha) | herbicidal effect rating ([4]; 0.2500 kg/ha) | herbicidal effect rating ([4]; 0.5000 kg/ha) | herbicide rating (0-9) [5] | herbicidal effect rating ([6]; 0.0313-0.0320 kg/ha) | herbicidal effect rating ([6]; 0.0625-0.0640 kg/ha) | herbicidal effect rating ([6]; 0.1250 kg/ha) | herbicidal effect rating ([6]; 0.2500 kg/ha) | herbicidal effect rating ([6]; 0.5000 kg/ha) | herbicidal effect rating ([7]; 0.2500 kg/ha) | herbicidal effect rating ([7]; 0.5000 kg/ha) | herbicidal effect rating ([8]; 0.1250 kg/ha) | herbicidal effect rating ([8]; 0.2500 kg/ha) | herbicidal effect rating ([8]; 0.5000 kg/ha) | herbicidal effect rating ([9]; 0.0620-0.0630 kg/ha) | herbicidal effect rating ([9]; 0.1250 kg/ha) | herbicidal effect rating ([9]; 0.2500 kg/ha) | herbicidal effect rating ([9]; 0.5000 kg/ha) | herbicidal effect rating ([10]; 0.2500 kg/ha) | herbicidal effect rating ([10]; 0.5000 kg/ha) | herbicidal effect rating ([11]; 0.5000 kg/ha) | herbicidal effect rating ([12]; 0.0620-0.0630 kg/ha) | herbicidal effect rating ([12]; 0.1250 kg/ha) | herbicidal effect rating ([12]; 0.2500 kg/ha) | herbicidal effect rating ([12]; 0.5000 kg/ha) | herbicidal effect rating ([13]; 0.1250 kg/ha) | herbicidal effect rating ([13]; 0.2500 kg/ha) | herbicidal effect rating ([13]; 0.5000 kg/ha) | herbicidal effect rating ([14]; 0.0620-0.0630 kg/ha) | herbicidal effect rating ([14]; 0.1250 kg/ha) | herbicidal effect rating ([14]; 0.2500 kg/ha) | herbicidal effect rating ([14]; 0.5000 kg/ha) | herbicidal effect rating ([15]; 0.2500 kg/ha) | herbicidal effect rating ([15]; 0.5000 kg/ha) | herbicidal effect rating ([16]; 0.2500 kg/ha) | herbicidal effect rating ([16]; 0.5000 kg/ha)
4.5: herbicidal effect rating ([3]; 0.1250 kg/ha)
8.0 and 6.0: herbicidal effect rating ([15]; 0.0620-0.0630 kg/ha)
9.0 and 5.0: herbicidal effect rating ([2]; 0.0625-0.0640 kg/ha)
5.7 and 5.0 and 8.0: herbicidal effect rating ([6]; 0.0157-0.0160 kg/ha)
3.5: herbicidal effect rating ([1]; 0.1250 kg/ha) | herbicidal effect rating ([1]; 0.2500 kg/ha)
8.7: herbicidal effect rating ([11]; 0.1250 kg/ha)
1.0 and 1.8 and 1.5: herbicidal effect rating ([3]; 0.0625-0.0640 kg/ha)
8.4 and 9.0 and 5.5: herbicidal effect rating ([13]; 0.0313-0.0320 kg/ha)
8.0: herbicidal effect rating ([11]; 0.2500 kg/ha)
4.2 and 7.5 and 5.3: herbicidal effect rating ([15]; 0.0313-0.0320 kg/ha)
9.0 and 6.0 and 8.0: herbicidal effect rating ([4]; 0.0313-0.0320 kg/ha)
7.5: herbicidal effect rating ([8]; 0.0156-0.0160 kg/ha)
6.5: herbicidal effect rating ([15]; 0.1250 kg/ha) | herbicidal effect rating ([16]; 0.1250 kg/ha)
3.0 and 3.5: herbicidal effect rating ([11]; 0.0156-0.0160 kg/ha)
3.0: herbicidal effect rating ([1]; 0.5000 kg/ha)
5.0 and 4.5 and 3.5: herbicidal effect rating ([1]; 0.0625-0.0640 kg/ha)
6.0 and 9.0 and 4.5: herbicidal effect rating ([16]; 0.0313-0.0320 kg/ha)
3.5 and 4.0 and 2.0: herbicidal effect rating ([1]; 0.0157-0.0160 kg/ha)
5.6 and 8.0 and 4.5: herbicidal effect rating ([7]; 0.0313-0.0320 kg/ha)
8.8 and 9.0 and 5.0: herbicidal effect rating ([9]; 0.0156-0.0160 kg/ha)
4.8 and 8.5: herbicidal effect rating ([14]; 0.0156-0.0160 kg/ha)
9.0 and 6.0: herbicidal effect rating ([10]; 0.0620-0.0630 kg/ha) | herbicidal effect rating ([13]; 0.0620-0.0630 kg/ha)
9.0 and 5.5: herbicidal effect rating ([7]; 0.0620-0.0630 kg/ha)
